Results reported in patent US9598424B2 (Takeda Pharmaceutical Company Limited, priority 2014, dated 2017).

Assays:
Full length human TBK1 = molecular target: T1, Full length human TBK1 (Homo sapiens, UniProt Q9UHD2); experiment: Inhibition of TBK1 Enzyme (Caliper microfluidic assay); assay type: biochemical; conditions: 25 μM ATP, 60 min at RT; -log(IC50), IC50 molar; read-out: TBK1 Inhibition (pIC50) (converted)
T1 construct: Full length human TBK1 with an N-terminal His-tag; His-tag (N); made in house; host or cells: Sf9 insect cells (baculovirus, pFastBac1)
T1 sequence (Q9UHD2 1-729): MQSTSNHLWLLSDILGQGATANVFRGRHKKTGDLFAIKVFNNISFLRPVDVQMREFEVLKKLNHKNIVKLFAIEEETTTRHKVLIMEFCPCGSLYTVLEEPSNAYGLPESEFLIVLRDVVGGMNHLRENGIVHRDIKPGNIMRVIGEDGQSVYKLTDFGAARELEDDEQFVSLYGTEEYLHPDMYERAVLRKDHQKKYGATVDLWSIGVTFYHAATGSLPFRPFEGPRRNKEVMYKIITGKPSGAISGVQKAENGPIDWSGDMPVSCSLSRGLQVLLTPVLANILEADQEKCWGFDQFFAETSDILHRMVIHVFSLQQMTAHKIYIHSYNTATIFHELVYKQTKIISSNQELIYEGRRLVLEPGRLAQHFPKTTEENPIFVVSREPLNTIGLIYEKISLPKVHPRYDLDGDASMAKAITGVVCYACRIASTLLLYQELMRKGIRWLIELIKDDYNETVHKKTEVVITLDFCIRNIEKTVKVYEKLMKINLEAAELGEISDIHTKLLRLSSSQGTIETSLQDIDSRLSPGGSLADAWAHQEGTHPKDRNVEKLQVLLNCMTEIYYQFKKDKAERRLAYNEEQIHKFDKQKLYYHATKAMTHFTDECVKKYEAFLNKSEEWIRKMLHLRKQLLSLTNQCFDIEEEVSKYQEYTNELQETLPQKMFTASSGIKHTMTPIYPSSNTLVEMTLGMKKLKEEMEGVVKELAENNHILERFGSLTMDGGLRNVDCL
Method: Full length human TBK1 with an N-terminal His-tag was cloned into the pFastBacl vector and was transfected into Sf9 cells. 72 hours later the virus was harvested and amplified through two additional rounds of infections. Then 400 ml of the resulting virus stock was used to infect 10L of Sf9 cells at a density of 2×10^6 cells/ml. Cell pellets were harvested 48 hours post infection and were lysed by freeze-thaw, homogenization and sonication in binding buffer (25 mM Tris pH7.6, 1 M NaCl, 10 mM imidazole, 0.5 mM TCEP) plus 0.1% Triton X-100 and complete protease inhibitor cocktail. The lysate was spun and the supernatant was purified with a HisTrap FF crude and a Superdex 200 pg column.
TBK1 inhibition is determined using a 384 well plate format in buffer containing 20 mM Hepes, pH 7.4, 10 mM MgCl2, 1 mM EDTA, 0.01% Brij-L23, 1 mM DTT. Each test compound is prepared in DMSO using 2.5-fold serial dilutions for 11 data points, which are added to the buffer so that each dilution contains 1% DMSO. To each well is added 2 μL of 1 μm 5FAM-DRHDSGLDSMKDE-NH2 (in buffer), 2 μL of diluted test compound (1% DMSO in buffer), and 5 μL of 3 nM TBK1 and 25 μM ATP (in buffer). The reaction mixture is incubated at RT for 60 min, and quenched by adding 20 mM Hepes, pH 7.4, 10 mM MgCl2, 1 mM EDTA, 0.01% Brij-L23, 1 mM DTT+25 mM EDTA. To quantify the fluorescent-labeled substrate and product following reaction, the test plate is loaded on a Caliper LC-3000, which measures percent of conversion by microfluidic-based separation. Corresponding IC50 values are calculated by non-linear curve fitting of the compound concentrations and percent of inhibition to the standard IC50 equation and reported as pIC50, i.e., −log(IC50), where IC50 is the molar concentration.

TBK1 = molecular target: T2, TBK1 (Homo sapiens, UniProt Q9UHD2); experiment: Inhibition of TBK1 in Cells (TLR3 driven ISRE β-lactamase reporter assay); assay type: cell-based; conditions: poly IC-LMW stimulation 16 hrs; -log(EC50), EC50 molar; read-out: Inhibition of TBK1 in cells pEC50 (EC) (converted)
T2 construct: host or cells: RA1-ISRE beta-lactamase reporter cells
T2 sequence (Q9UHD2 1-729): T1 sequence (Q9UHD2 1-729)
Method: TBK1 inhibition is determined using a TLR3 driven RA1-ISRE β-lacatamase reporter assay (Life Technologies). In the assay 50,000 cells/well are plated in black clear bottom 384 well plate. Each test compound is prepared in DMSO using 2.5-fold serial dilutions for 11 data points, which are then added to the media. Cells are stimulated with 0.15 mg/ml poly IC-LMW (Invivogen) for 16 hrs. Reporter activity is detected using the LiveBLAzer-FRET B/G CCF4-AM substrate (Life Technologies) and the plate is read using the Spectramax M5 instrument. Corresponding EC50 values are calculated by non-linear curve fitting of the compound concentrations and percent of inhibition to the standard EC50 equation and reported as pEC50, i.e., −log(EC50), where EC50 is the molar concentration.

Row | IC50 (Full length human TBK1) | EC50 (TBK1) | Structure (SMILES)
1 | 63.1 nM | 1550 nM | O=C(NC1CCCOC1)c1nc(-c2ccc3nc(NC(=O)C4CC4)cn3c2)cs1 (stereo in doubt) [Example 88, (S)-4-(2-(cyclopropanecarboxamido)imidazo[1,2-a]pyridin-6-yl)-N-(tetrahydro-2H-pyran-3-yl)thiazole-2-carboxamide]
2 | 10 nM | 794 nM | O=C(NCC(F)F)c1nc(-c2cn3cc(NC(=O)C4CC4)nc3cn2)cs1 [Example 5, 4-(2-(cyclopropanecarboxamido)imidazo[1,2-a]pyrazin-6-yl)-N-(2,2-difluoroethyl)thiazole-2-carboxamide]
3 | 7.94 nM | 355 nM | O=C(NCC(F)(F)F)c1nc(-c2cn3cc(NC(=O)C4CC4)nc3cn2)cs1 [Example 6, 4-(2-(cyclopropanecarboxamido)imidazo[1,2-a]pyrazin-6-yl)-N-(2,2,2-trifluoroethyl)thiazole-2-carboxamide]
4 | 200 nM | 9120 nM | O=C(NCC(F)F)c1nc(-c2ccc3nc(NC(=O)C4CC4)cn3n2)cs1 [Example 8, 4-(2-(cyclopropanecarboxamido)imidazo[1,2-b]pyridazin-6-yl)-N-(2,2-difluoroethyl)thiazole-2-carboxamide]
5 | 10 nM | 229 nM | C[C@@H](NC(=O)c1nc(-c2ccc3nc(NC(=O)C4CC4)cn3c2)c[nH]1)C(F)(F)F [Example 9, 4-{2-cyclopropaneamidoimidazo[1,2-a]pyridin-6-yl}-N-[(2R)-1,1,1-trifluoropropan-2-yl]-1H-imidazole-2-carboxamide]
6 | 316 nM | > 50100 nM | C[C@H](NC(=O)c1nc(-c2ccc3nc(NC(=O)C4CC4)cn3c2)c[nH]1)C(F)(F)F [Example 10, 4-{2-cyclopropaneamidoimidazo[1,2-a]pyridin-6-yl}-N-[(2S)-1,1,1-trifluoropropan-2-yl]-1H-imidazole-2-carboxamide]
7 | 63.1 nM | 813 nM | CC(F)(F)CNC(=O)c1nc(-c2ccc3nc(NC(=O)C4CC4)cn3c2)c[nH]1 [Example 11, 4-{2-cyclopropaneamidoimidazo[1,2-a]pyridin-6-yl}-N-(2,2-difluoropropyl)-1H-imidazole-2-carboxamide]
8 | 20 nM | 955 nM | O=C(NCC(F)F)c1nc(-c2ccc3nc(NC(=O)C4CC4)cn3c2)c[nH]1 [Example 12, 4-{2-cyclopropaneamidoimidazo[1,2-a]pyridin-6-yl}-N-(2,2-difluoroethyl)-1H-imidazole-2-carboxamide]
9 | 79.4 nM | 2950 nM | N#CCC(=O)Nc1cn2cc(-c3csc(C(=O)NCC(F)(F)F)c3)ccc2n1 [Example 17, 4-(2-(2-cyanoacetamido)imidazo[1,2-a]pyridin-6-yl)-N-(2,2,2-trifluoroethyl)thiophene-2-carboxamide]
10 | 10 nM | 251 nM | O=C(NCC(F)F)c1cc(-c2ccc3nc(NC(=O)C4CC4)cn3n2)cs1 [Example 18, 4-(2-(cyclopropanecarboxamido)imidazo[1,2-b]pyridazin-6-yl)-N-(2,2-difluoroethyl)thiophene-2-carboxamide]
11 | 5.01 nM | 407 nM | O=C(NCC(F)F)c1cc(-c2cn3cc(NC(=O)C4CC4)nc3cn2)cs1 [Example 19, 4-(2-(cyclopropanecarboxamido)imidazo[1,2-a]pyrazin-6-yl)-N-(2,2-difluoroethyl)thiophene-2-carboxamide]
12 | 501 nM | – | Cc1sc(C(=O)NCC(F)(F)F)nc1-c1ccc2nc(NC(=O)C3CC3)cn2n1 [Example 20, 4-(2-(cyclopropanecarboxamido)imidazo[1,2-b]pyridazin-6-yl)-5-methyl-N-(2,2,2-trifluoroethyl)thiazole-2-carboxamide]
13 | 200 nM | – | O=C(NCC(F)(F)F)c1ncc(-c2ccc3nc(NC(=O)C4CC4)cn3c2)s1 [Example 22, 5-(2-(cyclopropanecarboxamido)imidazo[1,2-a]pyridin-6-yl)-N-(2,2,2-trifluoroethyl)thiazole-2-carboxamide]
14 | 398 nM | – | Cc1sc(C(=O)NCC(F)(F)F)nc1-c1ccc2nc(NC(=O)C3CC3)cn2c1 [Example 31, 4-(2-(cyclopropanecarboxamido)imidazo[1,2-a]pyridin-6-yl)-5-methyl-N-(2,2,2-trifluoroethyl)thiazole-2-carboxamide]
15 | 794 nM | – | O=C(NCC(F)F)c1ccn(-c2ccc3nc(NC(=O)C4CC4)cn3n2)n1 [Example 37, 1-(2-(cyclopropanecarboxamido)imidazo[1,2-b]pyridazin-6-yl)-N-(2,2-difluoroethyl)-1H-pyrazole-3-carboxamide]
16 | 63.1 nM | – | O=C(NCC(F)(F)F)c1cn(-c2ccc3nc(NC(=O)C4CC4)cn3c2)cn1 [Example 41, 1-(2-(cyclopropanecarboxamido)imidazo[1,2-a]pyridin-6-yl)-N-(2,2,2-trifluoroethyl)-1H-imidazole-4-carboxamide]
17 | 794 nM | – | COC1CCN(C(=O)c2cc(-c3ccc4nc(NC(=O)C5CC5)cn4c3)cs2)CC1 [Example 58, N-(6-(5-(4-methoxypiperidine-1-carbonyl)thiophen-3-yl)imidazo[1,2-a]pyridin-2-yl)cyclopropanecarboxamide]
18 | 631 nM | – | NC(=O)[C@@H]1CC(F)(F)CN1C(=O)c1cc(-c2ccc3nc(NC(=O)C4CC4)cn3c2)cs1 [Example 82, (S)-1-(4-(2-(cyclopropanecarboxamido)imidazo[1,2-a]pyridin-6-yl)thiophene-2-carbonyl)-4,4-difluoropyrrolidine-2-carboxamide]
19 | 398 nM | – | O=C(NCCO)c1nc(-c2ccc3nc(NC(=O)C4CC4)cn3c2)cs1 [Example 95, 4-(2-(cyclopropanecarboxamido)imidazo[1,2-a]pyridin-6-yl)-N-(2-hydroxyethyl)thiazole-2-carboxamide]
20 | 251 nM | – | O=C1CC(NC(=O)c2nc(-c3ccc4nc(NC(=O)C5CC5)cn4c3)cs2)CN1 (centres unmarked) [Example 99, 4-(2-(cyclopropanecarboxamido)imidazo[1,2-a]pyridin-6-yl)-N-(5-oxopyrrolidin-3-yl)thiazole-2-carboxamide]
21 | 200 nM | – | O=C(Nc1cn2cc(-c3csc(C(=O)N4CCC(CO)C4)n3)ccc2n1)C1CC1 (centres unmarked) [Example 100, N-(6-(2-(3-(hydroxymethyl)pyrrolidine-1-carbonyl)thiazol-4-yl)imidazo[1,2-a]pyridin-2-yl)cyclopropanecarboxamide]
22 | 631 nM | – | COC1CN(C(=O)c2nc(-c3ccc4nc(NC(=O)C5CC5)cn4c3)cs2)C1 [Example 101, N-(6-(2-(3-methoxyazetidine-1-carbonyl)thiazol-4-yl)imidazo[1,2-a]pyridin-2-yl)cyclopropanecarboxamide]

Row | Structure (SMILES) | IC50 (Full length human TBK1) | EC50 (TBK1)
23 | O=C(CF)Nc1cn2cc(-c3csc(C(=O)NCC(F)(F)F)c3)ccc2n1 [Example 16, 4-(2-(2-fluoroacetamido)imidazo[1,2-a]pyridin-6-yl)-N-(2,2,2-trifluoroethyl)thiophene-2-carboxamide] | 79.4 nM | 1050 nM
